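Briefly, cells in 96-well plates were exposed to five compound concentrations for 48 h, and endpoints were estimated by linear interpolation. Abbreviation: GI50, concentration required for 50% inhibition of growth. TGI: total growth inhibition.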
Legend:
Assay in all cases: growth of human tumour cells (NCI), 48 h
U251 CNS = test system: U251 CNS
SR leukemia = test system: SR leukemia
ACHN renal = test system: ACHN renal
SF-268 CNS = test system: SF-268 CNS
BT-549 breast = test system: BT-549 breast
OVCAR-8 ovarian = test system: OVCAR-8 ovarian
UO-31 renal = test system: UO-31 renal
HOP-62 NSCLC = test system: HOP-62 NSCLC
EKVX NSCLC = test system: EKVX NSCLC
NCI-H522 lung = test system: NCI-H522 lung
SN12C renal = test system: SN12C renal
HT29 colon = test system: HT29 colon
HOP-92 NSCLC = test system: HOP-92 NSCLC
UACC-62 melanoma = test system: UACC-62 melanoma
K-562 leukemia = test system: K-562 leukemia
SNB-75 CNS = test system: SNB-75 CNS
RXF 393 renal = test system: RXF 393 renal
CCRF-CEM leukemia = test system: CCRF-CEM leukemia
MOLT-4 leukemia = test system: MOLT-4 leukemia
HCT-15 colon = test system: HCT-15 colon
NCI/ADR-RES ovarian = test system: NCI/ADR-RES ovarian
SK-OV-3 ovarian = test system: SK-OV-3 ovarian
SF-295 CNS = test system: SF-295 CNS
MDA-MB-435 = test system: MDA-MB-435
PC-3 prostate = test system: PC-3 prostate
KM12 colon = test system: KM12 colon
RPMI-8226 leukemia = test system: RPMI-8226 leukemia
CAKI-1 renal = test system: CAKI-1 renal
SF-539 CNS = test system: SF-539 CNS
SW-620 colon = test system: SW-620 colon
786-0 renal = test system: 786-0 renal
HCT-116 colon = test system: HCT-116 colon
NCI-H460 lung = test system: NCI-H460 lung
HS 578T breast = test system: HS 578T breast
DU-145 prostate = test system: DU-145 prostate
UACC-257 melanoma = test system: UACC-257 melanoma
IGROV1 ovarian = test system: IGROV1 ovarian
M14 melanoma = test system: M14 melanoma
MDA-MB-231 breast = test system: MDA-MB-231 breast
TK-10 renal = test system: TK-10 renal
LOX IMVI melanoma = test system: LOX IMVI melanoma
SK-MEL-5 melanoma = test system: SK-MEL-5 melanoma
OVCAR-5 ovarian = test system: OVCAR-5 ovarian
HL-60(TB) leukemia = test system: HL-60(TB) leukemia
MALME-3M melanoma = test system: MALME-3M melanoma
SNB-19 CNS = test system: SNB-19 CNS
OVCAR-4 ovarian = test system: OVCAR-4 ovarian
MCF7 breast = test system: MCF7 breast
NCI-H226 lung = test system: NCI-H226 lung
MDA-MB-468 breast = test system: MDA-MB-468 breast
NCI-H23 lung = test system: NCI-H23 lung
T-47D breast = test system: T-47D breast
A498 renal = test system: A498 renal
OVCAR-3 ovarian = test system: OVCAR-3 ovarian
A549 NSCLC = test system: A549 NSCLC
COLO 205 colon = test system: COLO 205 colon
SK-MEL-28 melanoma = test system: SK-MEL-28 melanoma
SK-MEL-2 melanoma = test system: SK-MEL-2 melanoma
HCC-2998 colon = test system: HCC-2998 colon

`COc1ccc(CN2[C@H](C(=O)NCCCCCCC(=O)NO)Cc3c([nH]c4ccccc34)[C@H]2C2CC2)cc1` was tested, and the GI50 (U251 CNS) was 1810 nM, the TGI (U251 CNS) was 7260 nM and the GI50 (SR leukemia) was 1120 nM. The TGI (SR leukemia) was > 20000 nM, the GI50 (ACHN renal) was 1720 nM and the TGI (ACHN renal) was 6110 nM. For the same compound, the GI50 (SF-268 CNS) was 2870 nM, the TGI (SF-268 CNS) was > 13700 nM and the GI50 (BT-549 breast) was 5340 nM. For the same compound, the TGI (BT-549 breast) was > 19100 nM, the GI50 (OVCAR-8 ovarian) was 1950 nM and the TGI (OVCAR-8 ovarian) was > 10200 nM. The GI50 (UO-31 renal) was 2280 nM, the TGI (UO-31 renal) was 9500 nM and the GI50 (HOP-62 NSCLC) was 2160 nM. For the same compound, the TGI (HOP-62 NSCLC) was > 10600 nM, the GI50 (EKVX NSCLC) was 2250 nM and the TGI (EKVX NSCLC) was > 20000 nM. It also gave a GI50 (NCI-H522 lung) of 1330 nM, a TGI (NCI-H522 lung) of 5210 nM and a GI50 (SN12C renal) of 2190 nM. It also gave a TGI (SN12C renal) of 8580 nM, a GI50 (HT29 colon) of 1350 nM and a TGI (HT29 colon) of 10600 nM. The GI50 (HOP-92 NSCLC) was 1290 nM, the TGI (HOP-92 NSCLC) was 4380 nM and the GI50 (UACC-62 melanoma) was 1010 nM. For the same compound, the TGI (UACC-62 melanoma) was 2560 nM, the GI50 (K-562 leukemia) was 1860 nM and the TGI (K-562 leukemia) was > 20000 nM. For the same compound, the GI50 (SNB-75 CNS) was 397 nM, the TGI (SNB-75 CNS) was > 5950 nM and the GI50 (RXF 393 renal) was 898 nM. The TGI (RXF 393 renal) was 2450 nM, the GI50 (CCRF-CEM leukemia) was 1250 nM and the TGI (CCRF-CEM leukemia) was > 20000 nM. For the same compound, the GI50 (MOLT-4 leukemia) was 1960 nM, the TGI (MOLT-4 leukemia) was > 20000 nM and the GI50 (HCT-15 colon) was 4340 nM. For the same compound, the TGI (HCT-15 colon) was > 16500 nM, the GI50 (NCI/ADR-RES ovarian) was 5420 nM and the TGI (NCI/ADR-RES ovarian) was > 20000 nM. The GI50 (SK-OV-3 ovarian) was 1170 nM, the TGI (SK-OV-3 ovarian) was 3280 nM and the GI50 (SF-295 CNS) was 1420 nM. For the same compound, the TGI (SF-295 CNS) was 4330 nM, the GI50 (MDA-MB-435) was 1160 nM and the TGI (MDA-MB-435) was 3490 nM. For the same compound, the GI50 (PC-3 prostate) was 1880 nM, the TGI (PC-3 prostate) was > 20000 nM and the GI50 (KM12 colon) was 2140 nM. For the same compound, the TGI (KM12 colon) was > 14200 nM, the GI50 (RPMI-8226 leukemia) was 1870 nM and the TGI (RPMI-8226 leukemia) was > 20000 nM. For the same compound, the GI50 (CAKI-1 renal) was 1480 nM, the TGI (CAKI-1 renal) was 7560 nM and the GI50 (SF-539 CNS) was 1820 nM. It also gave a TGI (SF-539 CNS) of 8740 nM, a GI50 (SW-620 colon) of 1150 nM and a TGI (SW-620 colon) of 3530 nM. For the same compound, the GI50 (786-0 renal) was 3390 nM, the TGI (786-0 renal) was > 20000 nM and the GI50 (HCT-116 colon) was 1160 nM. The TGI (HCT-116 colon) was > 13300 nM, the GI50 (NCI-H460 lung) was 1780 nM and the TGI (NCI-H460 lung) was > 20000 nM. For the same compound, the GI50 (HS 578T breast) was 1650 nM, the TGI (HS 578T breast) was 10700 nM and the GI50 (DU-145 prostate) was 2120 nM. For the same compound, the TGI (DU-145 prostate) was > 20000 nM, the GI50 (UACC-257 melanoma) was 1760 nM and the TGI (UACC-257 melanoma) was > 9720 nM. The GI50 (IGROV1 ovarian) was 1410 nM, the TGI (IGROV1 ovarian) was 4690 nM and the GI50 (M14 melanoma) was 2020 nM. For the same compound, the TGI (M14 melanoma) was > 20000 nM, the GI50 (MDA-MB-231 breast) was 1410 nM and the TGI (MDA-MB-231 breast) was 4200 nM. For the same compound, the GI50 (TK-10 renal) was 1390 nM, the TGI (TK-10 renal) was 7360 nM and the GI50 (LOX IMVI melanoma) was 1310 nM. It also gave a TGI (LOX IMVI melanoma) of 3590 nM, a GI50 (SK-MEL-5 melanoma) of 1250 nM and a TGI (SK-MEL-5 melanoma) of 2970 nM. The GI50 (OVCAR-5 ovarian) was 1090 nM, the TGI (OVCAR-5 ovarian) was 3180 nM and the GI50 (HL-60(TB) leukemia) was 2120 nM. For the same compound, the TGI (HL-60(TB) leukemia) was > 20000 nM, the GI50 (MALME-3M melanoma) was 946 nM and the TGI (MALME-3M melanoma) was 3840 nM. The GI50 (SNB-19 CNS) was 2110 nM, the TGI (SNB-19 CNS) was 12500 nM and the GI50 (OVCAR-4 ovarian) was 5240 nM. For the same compound, the TGI (OVCAR-4 ovarian) was > 20000 nM, the GI50 (MCF7 breast) was 1800 nM and the TGI (MCF7 breast) was > 16100 nM. The GI50 (NCI-H226 lung) was 2900 nM, the TGI (NCI-H226 lung) was > 16500 nM and the GI50 (MDA-MB-468 breast) was 1020 nM. The TGI (MDA-MB-468 breast) was > 5340 nM, the GI50 (NCI-H23 lung) was 1880 nM and the TGI (NCI-H23 lung) was 8190 nM. It also gave a GI50 (T-47D breast) of 1520 nM, a TGI (T-47D breast) of 4710 nM and a GI50 (A498 renal) of 1130 nM. It also gave a TGI (A498 renal) of 4200 nM, a GI50 (OVCAR-3 ovarian) of 1890 nM and a TGI (OVCAR-3 ovarian) of 8380 nM. The GI50 (A549 NSCLC) was 2150 nM, the TGI (A549 NSCLC) was > 13000 nM and the GI50 (COLO 205 colon) was 1630 nM. For the same compound, the TGI (COLO 205 colon) was 4870 nM, the GI50 (SK-MEL-28 melanoma) was 1660 nM and the TGI (SK-MEL-28 melanoma) was 6850 nM. It also gave a GI50 (SK-MEL-2 melanoma) of 998 nM, a TGI (SK-MEL-2 melanoma) of 18100 nM and a GI50 (HCC-2998 colon) of 1610 nM. The TGI (HCC-2998 colon) was 4550 nM.
